Data on 3 compounds can be found in article PMC12377313, “New 1E,1′E-hydrazine-bis(phenoxy-1,2,3-triazol-acetamide) derivatives as potent inhibitors against acetylcholinesterase, butyrylcholinesterase, and α-glucosidase” (RSC Advances, 2025).

Assay [1] addresses T1, AChE (Homo sapiens, UniProt P22303). The assay is described as follows: biochemical. Format: biochemical.
Assay [2] has as its target T2, α-glucosidase (Saccharomyces cerevisiae, UniProt P53341). The assay is described as follows: α-Glucosidase inhibition assay (p-NPG substrate). The class given is biochemical, yeast. The method, then:
For this assay, the yeast form of α-glucosidase was used and p-nitrophenyl-α-D-glycopyranoside (p-NPG) was used as the substrate. The required solutions of these materials were prepared in a phosphate buffer solution (pH of 7.4 and a concentration of 5 mM). […] Subsequently, a mixture containing 200 μL of phosphate solution, 50 μL of the substrate, and 5–200 μL of the sample solution was pre-incubated at 35 °C for 3 min for α-glucosidase.

The test system of assay [3] is SH-SY5Y neuroblastoma cells. The assay is described as follows: MTT cell viability assay, SH-SY5Y. The class given is cell-based, human. The settings on record: for Selectivity (selectivity index): HEK293 versus SH-SY5Y; for IC50: Homo sapiens, SH-SY5Y, 24 h, read-out: IC50 (μM) SH-SY5Y. The method, then: The cells were incubated at 37 °C in a humidified atmosphere of 5% CO2. Both cell lines were provided by the American Type Culture Collection (ATCC).[30,31]
Each concentration was tested in triplicate.
(§1) Following treatment, 10 μL of MTT solution (5 mg mL^−1 in PBS) was added to each well and incubated for an additional 4 hours under the same conditions. At the end of the incubation period, the medium containing MTT was carefully removed, and the formazan crystals formed by viable cells were solubilized in 100 μL of DMSO per well. The absorbance was measured at 570 nm using a microplate reader. The net absorbance (after blank subtraction) was used to calculate the percentage cell viability relative to the untreated control cells, which was set at 100%. All results were expressed as mean ± standard deviation (SD) of three independent experiments.[32,33]

Assay [4] has as its system HEK293 embryonic kidney cells. The experiment in a line: MTT cell viability assay, HEK293. The settings on record: Homo sapiens, read-out: IC50 (μM) HEK-293. Format: cell-based. The method, then: The human neuroblastoma cell line SH-SY5Y (ATCC® CRL-2266™) and HEK293 (ATCC® CRL-1573™) human embryonic kidney cells were grown in Dulbecco's Modified Eagle Medium/Nutrient Mixture F-12 (DMEM/F-12) culture containing 10% heat-inactivated fetal bovine serum (FBS) and 1% antibiotics. The cells were incubated at 37 °C in a humidified atmosphere of 5% CO2. Both cell lines were provided by the American Type Culture Collection (ATCC).[30,31]
SH-SY5Y (ATCC® CRL-2266™) and HEK293 (ATCC® CRL-1573™) cells were seeded into 96-well plates at a density of 5 × 10^3 cells per well, and allowed to adhere overnight in a humidified incubator at 37 °C with 5% CO2. After attachment, the cells were treated with eight different concentrations of the target compounds (200, 100, 50, 25, 12.5, 6.25, 3.125, and 1.5625 μM), prepared via serial 1 : 2 dilutions, for 24 hours. Each concentration was tested in triplicate.
as §1

Assay [5] deals with T2, α-glucosidase. The experiment in a line: Kinetic study (Lineweaver–Burk plots), α-glucosidase. The class given is biochemical. The method, then:
In this regard, compound 10k for AChE and BChE and compound 10h for α-glucosidase were selected. The type of inhibition of these compounds was determined by Lineweaver–Burk plots. […] These indicated a competitive type of inhibition for compound 10k.

Assay [6] deals with T3, BChE (Homo sapiens, UniProt P06276). The experiment in a line: biochemical.
T3 sequence (P06276 29-602): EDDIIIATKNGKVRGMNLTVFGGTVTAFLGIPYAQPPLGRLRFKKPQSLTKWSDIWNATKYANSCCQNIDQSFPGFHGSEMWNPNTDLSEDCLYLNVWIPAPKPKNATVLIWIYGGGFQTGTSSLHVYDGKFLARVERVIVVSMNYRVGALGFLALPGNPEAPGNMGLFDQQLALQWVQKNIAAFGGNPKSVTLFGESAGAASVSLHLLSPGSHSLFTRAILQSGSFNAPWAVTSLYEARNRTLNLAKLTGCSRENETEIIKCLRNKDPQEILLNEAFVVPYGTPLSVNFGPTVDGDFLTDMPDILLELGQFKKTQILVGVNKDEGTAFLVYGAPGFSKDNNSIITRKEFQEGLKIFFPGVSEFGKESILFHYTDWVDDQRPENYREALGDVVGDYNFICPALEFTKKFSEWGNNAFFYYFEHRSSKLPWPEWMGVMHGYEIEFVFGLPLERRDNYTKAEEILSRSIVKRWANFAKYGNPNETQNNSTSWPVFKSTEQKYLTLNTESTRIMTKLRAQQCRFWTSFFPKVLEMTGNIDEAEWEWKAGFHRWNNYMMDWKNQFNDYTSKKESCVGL
The target in assay [7] is T1, AChE. The assay is described as follows: Kinetic study (Lineweaver–Burk plots), AChE. The class given is biochemical. The protocol: (§2) […]. In this regard, compound 10k for AChE and BChE and compound 10h for α-glucosidase were selected. The type of inhibition of these compounds was determined by Lineweaver–Burk plots. […] These indicated a competitive type of inhibition for compound 10k.

Assay [8] has as its target T3, BChE. The assay is described as follows: Kinetic study (Lineweaver–Burk plots), BChE. Format: biochemical. The method, then:
as §2

[9] abbreviates: 24 h treatment, MTT, mean ± SD (n = 3).
Setting [10] is: HEK293, 24 h treatment, MTT, mean ± SD (n = 3).

Where two headings read alike, the source gives them in different places.

T1 sequence (P22303 32-614): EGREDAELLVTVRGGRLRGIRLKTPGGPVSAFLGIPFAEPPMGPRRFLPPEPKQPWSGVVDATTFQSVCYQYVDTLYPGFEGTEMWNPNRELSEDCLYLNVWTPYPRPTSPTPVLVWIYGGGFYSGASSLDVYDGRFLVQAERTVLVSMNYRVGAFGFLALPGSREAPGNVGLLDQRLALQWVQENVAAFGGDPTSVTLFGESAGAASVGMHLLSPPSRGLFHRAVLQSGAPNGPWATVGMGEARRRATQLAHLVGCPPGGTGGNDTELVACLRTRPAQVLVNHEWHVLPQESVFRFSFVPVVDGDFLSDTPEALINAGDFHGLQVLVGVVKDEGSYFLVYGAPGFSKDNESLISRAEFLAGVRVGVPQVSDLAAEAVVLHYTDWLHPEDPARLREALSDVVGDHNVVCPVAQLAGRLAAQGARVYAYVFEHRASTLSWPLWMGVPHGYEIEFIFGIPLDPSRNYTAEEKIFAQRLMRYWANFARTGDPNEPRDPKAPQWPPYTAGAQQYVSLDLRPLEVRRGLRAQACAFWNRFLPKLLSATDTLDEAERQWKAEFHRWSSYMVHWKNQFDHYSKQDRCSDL
T2 sequence (P53341 whole entry): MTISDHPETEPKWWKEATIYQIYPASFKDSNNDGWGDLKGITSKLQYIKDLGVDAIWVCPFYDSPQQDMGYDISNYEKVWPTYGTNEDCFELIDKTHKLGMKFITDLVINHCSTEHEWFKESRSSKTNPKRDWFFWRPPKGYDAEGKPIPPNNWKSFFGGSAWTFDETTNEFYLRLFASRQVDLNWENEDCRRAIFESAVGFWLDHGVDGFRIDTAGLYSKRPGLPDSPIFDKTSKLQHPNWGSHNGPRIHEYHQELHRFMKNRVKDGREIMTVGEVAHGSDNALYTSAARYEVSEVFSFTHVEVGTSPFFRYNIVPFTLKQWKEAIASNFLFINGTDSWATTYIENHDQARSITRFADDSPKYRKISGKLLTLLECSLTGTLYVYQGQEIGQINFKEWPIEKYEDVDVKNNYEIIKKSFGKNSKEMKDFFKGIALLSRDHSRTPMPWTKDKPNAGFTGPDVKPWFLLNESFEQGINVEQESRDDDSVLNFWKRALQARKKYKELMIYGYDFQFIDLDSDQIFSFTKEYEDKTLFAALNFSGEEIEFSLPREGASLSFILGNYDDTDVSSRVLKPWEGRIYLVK

Turning to `O=C(Cn1cc(COc2ccc(/C=N/N=C/c3ccc(OCc4cn(CC(=O)Nc5ccccc5Cl)nn4)cc3)cc2)nn1)Nc1ccccc1Cl` [Compound 10h, 2,2′-((((((1E,1′E)-Hydrazine-1,2-diylidenebis(methaneylylidene))bis(4,1-phenylene))bis(oxy))bis(methylene))bis(1H-1,2,3-triazole-4,1-diyl))bis(N-(2-chlorophenyl)acetamide)], the 50% inhibitory concentration (IC50) in assay [1] (read-out: IC50 (nM) AChE) is 118 ± 9.17 nM; in assay [2], 23.9 ± 3.42 nM; in assay [3] (setting [9]) it was 7.42 ± 0.07 µM; in assay [4] (setting [10]), 78.38 ± 0.57 µM; in assay [6] it was 0.0194 ± 0.00065 µM. For the same compound, the “Selectivity (selectivity index)” value in assay [3] was 10.6. Also, in assay [5], the “type of inhibition against α-glucosidase” value is given as “non-competitive”.

For the compound `O=C(Cn1cc(COc2ccc(/C=N/N=C/c3ccc(OCc4cn(CC(=O)Nc5ccc(Cl)cc5Cl)nn4)cc3)cc2)nn1)Nc1ccc(Cl)cc1Cl` [Compound 10k, 2,2′-((((((1E,1′E)-Hydrazine-1,2-diylidenebis(methaneylylidene))bis(4,1-phenylene))bis(oxy))bis(methylene))bis(1H-1,2,3-triazole-4,1-diyl))bis(N-(2,4-dichlorophenyl)acetamide)], the IC50 came out at 105 ± 7.32 nM in assay [1] (read-out: IC50 (nM) AChE); 46.1 ± 3.26 nM in assay [2]; 8.11 ± 0.07 µM in assay [3] (setting [9]); 81.71 ± 0.56 µM in assay [4] (setting [10]); 0.0101 ± 0.00108 µM in assay [6]. For the same compound, in assay [3], the “Selectivity (selectivity index)” value is 10.1. In assay [7], the “type of inhibition against AChE” value was “competitive”. Further, the “type of inhibition against BChE” value in assay [8] is listed as “competitive”.

With `O=C(Cn1cc(COc2ccc(/C=N/N=C/c3ccc(OCc4cn(CC(=O)Nc5ccc([N+](=O)[O-])cc5)nn4)cc3)cc2)nn1)Nc1ccc([N+](=O)[O-])cc1` [Compound 10n, 2,2′-((((((1E,1′E)-Hydrazine-1,2-diylidenebis(methaneylylidene))bis(4,1-phenylene))bis(oxy))bis(methylene))bis(1H-1,2,3-triazole-4,1-diyl))bis(N-(4-nitrophenyl)acetamide)], the half-inhibitory concentration (IC50) is 173 ± 9.71 nM in assay [1]; 65.1 ± 6.01 nM in assay [2] (read-out: IC50 (nM) α-Glucosidase); 5.22 ± 0.12 µM in assay [3]; 38.42 ± 0.19 µM in assay [4] (HEK293, 24 h); 0.0139 ± 0.0043 µM in assay [6]. Further, the “Selectivity (selectivity index)” value in assay [3] is listed as 7.4.
